These results are taken from PMC4370448, “Advanced Enzymology, Expression Profile and Immune Response of Clonorchis sinensis Hexokinase Show Its Application Potential for Prevention and Control of Clonorchiasis” (PLoS Neglected Tropical Diseases, 2015).

The target in assay [1] is T1, rCsHK (Clonorchis sinensis, UniProt G7YJ23).
T1 construct: gene CLF_109217
T1 sequence (G7YJ23 1-449): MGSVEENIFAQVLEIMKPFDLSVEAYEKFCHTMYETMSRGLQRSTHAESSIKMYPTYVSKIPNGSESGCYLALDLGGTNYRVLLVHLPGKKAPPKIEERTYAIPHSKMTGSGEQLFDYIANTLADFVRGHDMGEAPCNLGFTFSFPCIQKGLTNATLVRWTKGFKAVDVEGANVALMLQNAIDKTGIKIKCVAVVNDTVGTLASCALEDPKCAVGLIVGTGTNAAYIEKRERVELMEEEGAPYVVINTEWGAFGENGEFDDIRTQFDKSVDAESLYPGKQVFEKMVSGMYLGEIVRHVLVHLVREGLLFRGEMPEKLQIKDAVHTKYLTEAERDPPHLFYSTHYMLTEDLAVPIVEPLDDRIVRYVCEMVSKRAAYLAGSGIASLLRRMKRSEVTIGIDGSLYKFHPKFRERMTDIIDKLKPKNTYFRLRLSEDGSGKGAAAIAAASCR
In words: G6PD-coupled NADPH formation at […] nm. Format: biochemical. The conditions noted are these: read-out: % inhibition at 10 mM.

The target in assay [2] is T1, rCsHK. Description: G6PD-coupled NADPH formation at […] nm, Hill fit. Conditions: 3 mM glucose, 15 mM MgCl2, pH 8.5. Format: biochemical.

In the case of `Cc1cn([C@H]2C[C@H](O)[C@@H](COP(=O)(O)OP(=O)(O)OP(=O)(O)O)O2)c(=O)[nH]c1=O` [TTP], the inhibition at 10000 µM at rCsHK [1] stood at 14.3%. For the compound `Nc1ncnc2c1ncn2[C@@H]1O[C@H](COP(=O)(O)OP(=O)(O)OP(=O)(O)O)[C@@H](O)[C@H]1O` [ATP], the inhibition at 10000 µM on rCsHK [1] is 13.8%. Turning to `Nc1ncnc2c1ncn2[C@@H]1O[C@H](COP(=O)(O)O)[C@@H](O)[C@H]1O` [AMP], the “G6PD-coupled NADPH formation at 340 nm, Hill fit” value (from here on “G6PD-coupled NADPH formation”) at rCsHK [2] (0-5 mM, allosteric activator, mixed K+V+ with respect to ATP) is listed as “AMP exhibited a mixed allosteric K+V+ effect”. As for `O=C(O)CC(O)(CC(=O)O)C(=O)O` [citrate], the “G6PD-coupled NADPH formation” value at rCsHK [2] (0-10 mM, allosteric, K+V+ activator at 5 and 10 mM, net inhibition (K-V+) at 2 mM, with respect to ATP) is given as “Citrate exhibited an unusual mixed allosteric effect on rCsHK with respect to ATP”. `C=C(OP(=O)(O)O)C(=O)O` [PEP]: at rCsHK [2] (0-10 mM, allosteric activator, mixed K+V+ with respect to ATP), the “G6PD-coupled NADPH formation” value was “PEP displayed allosteric activation of rCsHK with respect to ATP”. As for `Nc1ccn([C@@H]2O[C@H](COP(=O)(O)OP(=O)(O)OP(=O)(O)O)[C@@H](O)[C@H]2O)c(=O)n1` [CTP], the inhibition at 10000 µM at rCsHK [1] turned out to be 8.6%.

The inhibition is the relative decrease from the control value, in per cent.
